Laboratory results from US6368812B1 (priority 1996, dated 2002).

Molecular target: T1, human α1A adrenergic receptor (Homo sapiens, UniProt P35348)
T1 construct: expressed in transfected cells; host or cells: Xenopus laevis oocytes, mRNA-injected
T1 sequence (P35348 1-466): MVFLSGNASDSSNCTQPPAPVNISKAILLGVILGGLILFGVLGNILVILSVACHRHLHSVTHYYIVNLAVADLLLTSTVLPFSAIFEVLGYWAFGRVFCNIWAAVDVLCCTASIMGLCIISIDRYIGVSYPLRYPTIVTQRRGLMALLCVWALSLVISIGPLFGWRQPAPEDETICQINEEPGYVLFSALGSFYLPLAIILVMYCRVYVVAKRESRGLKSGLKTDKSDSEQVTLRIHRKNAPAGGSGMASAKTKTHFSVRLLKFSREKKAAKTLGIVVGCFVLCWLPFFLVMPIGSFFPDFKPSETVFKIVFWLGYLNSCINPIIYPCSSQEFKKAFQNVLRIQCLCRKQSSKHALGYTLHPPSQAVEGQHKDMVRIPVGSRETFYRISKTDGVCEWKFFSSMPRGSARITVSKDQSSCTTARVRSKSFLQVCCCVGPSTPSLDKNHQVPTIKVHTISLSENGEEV
Type: cell-based
Protocol: FIG. 7 Pertussis toxin sensitivity of GalR3 and GalR1 stimulation of GIRK currents. […] . Number of observations appears in parenthesis below the x-axis. Apparent absence of a bar indicates an amplitude of 0 (no response above baseline).
5′-[…] […]-3′ (SEQ ID NO. 59). […] The new plasmid was designated M52.
Experiments were carried out at room temperature.

## CNC[C@H](O)c1ccc(O)c(O)c1 [epinephrine]
  Cl− currents in oocytes expressing α1a receptors: stimulates transient Cl^− currents
